# Patent US20220054588A1, “USE OF SAP FOR THE TREATMENT OF EUROTIOMYCETES FUNGI INFECTIONS” (HUMANITAS MIRASOLE S.P.A., priority 2018, published 2022)
# Columns and labels:
# A. fumigatus conidia = assay: Resazurin-based fungal viability assay; parameters: species or system Aspergillus fumigatus; details: for microbicidal activity: 1 min, conidia pre-opsonised with human SAP
# Protocol: (§1) FIG. 12 depicts the therapeutic efficacy of SAP in treatment of invasive aspergillosis. a) b) c) survival of transiently immunosuppressed wt mice after injection with the indicated doses of AF conidia. The curve of untreated mice (n=3) with cyclophosphamide is also shown (a). Human SAP (4 mg/Kg) was injected at 2 h and 24 h after infection. a) AF 5.10^7, n=17; AF 5.10^7+SAP, n=15; b) AF 1.10^7, n=7; AF 1.10^7+SAP, n=8; c) AF 5.10^6, n=8; AF 5.10^6+SAP, n=10.***, P<0.005 SAP-treated vs. saline (Mantel-Cox test). One-way ANOVA, P<0.0001. d) lung CFU in mice treated with cyclophosphamide and infected with 1.10^7 AF conidia.*, P<0.05 (Mann-Whitney test). e) quantitative analysis of AF viability performed using a resazurin-based assay. Plasma (30%) from wt and Apcs^−/− mice were incubated (1 min) with 1.5×10^5 AF conidia pre-opsonized or not with SAP. Results are mean±SD of red fluorescence (excitation/emission 535/580-610 nm) intensity of the resazurin once reduced to resorufin within viable cells. Effect of Posaconazole (POC; 1 μM) exposure is also shown. Results are mean±SEM relative to the condition without serum (grey symbols) of two experiments performed with n=10 mice/group. […] AF viability assay performed in sera depleted from complement components. Figure summarizes one experiment out of 5 also conducted with serum 10%. Mean±SD.*, P<0.05; **, P<0.01 (unpaired t-test). g) and h) FACS analysis of MAC deposition on AF conidia (1×10^7) in presence of sera depleted from complement components (e) and the effect of SAP (f). Mean±SEM of 2 experiments performed out of 4. e, f,*, P<0.05;**, P<0.01;***, P<0.005;****, P<0.001; (Mann-Whitney test).
# Fungal viability assay. Effect of SAP on A. fumigatus killing was evaluated by a resazurin-based cell viability assay as described (Mantovani et al., 2010). A volume of 10 μl PBS, pH 7.4, containing 1.5×10^5 conidia eventually opsonized with human SAP (100 μg/ml per 1×10^9 conidia, 1 h at r.t.) was placed into sterile round bottom Corning® 96-well polypropylene microplate and incubated for 1 and 30 min at 37° C. with 20 μl of 10 and 30% plasma-heparin from wt and Apcs^−/− mice or human serum and different complement component-depleted sera. After incubation, plates were immediately cooled on ice and cold-centrifuged (2000 rpm, 10 min at 4° C.), and then supernatant removed. Conidia not incubated with plasma or serum were used as a negative control. Conidia treated with the fungicide drug Posaconazole (POC; 1 μM) were considered as positive control in the assay. […] After 17 h reaction at 37° C., fluorescence (excitation/emission at ≈530-560/590 nm) intensity was measured by microplate reader Synergy™ H4 (BioTek, France). Results represent ratio of fluorescence intensity values relative to those measured in negative controls. […]
# [1] = test system: membrane attack complex (MAC; C5b-C9) on A. fumigatus conidia; assay: FACS analysis of MAC (C5b-C9) deposition on A. fumigatus conidia in human sera; assay type: biochemical
# Protocol: as §1
# Complement deposition on Aspergillus fumigatus. A volume of 10 μl PBS, pH 7.4, containing 1×10^7 conidia eventually opsonized with murine SAP (100 μg/ml per 1×10^9 conidia, 1 h at r.t.) was incubated (37° C.) in round bottom wells of Corning® 96-well polypropylene microplates for the indicated time points with 20 μl mouse plasma-heparin or 20 μl human NS and complement depleted sera (diluted in PBS at 10% and 30%). Complement deposition was blocked by addition of EDTA (10 mM final concentration) and by cooling in ice. After centrifugation (2000 rpm, 10 min at 4° C.), when indicated supernatant was collected for C5a measurement by ELISA. […] Conidia were then incubated (1 h, at 4° C.) with Alexa Fluor® 488 and 647-conjugated species-specific cross-adsorbed detection antibodies (2 μg/ml; ThermoFisher Scientific-Molecular Probes) and analysed by BD FACS Canto™ II Flow Cytometer (BD Biosciences) using forward and side scatter parameters to gate on at least 8,000 conidia. […] Results were expressed as frequency of conidia showing fluorescence compared with irrelevant controls and as geometric conidia MFI.
substance,measurement,setting,value
"human native SAP: Native SAP from human serum purchased by Merck-Millipore; Serum Amyloid P component, SEQ ID NO: 1",microbicidal activity,A. fumigatus conidia; Apcs−/− mouse plasma,increase of microbicidal activity
same,SAP effect on microbicidal activity,A. fumigatus conidia; human serum depleted of C1q,abolished
same,SAP effect on microbicidal activity,A. fumigatus conidia; human serum depleted of C3,abolished
same,microbicidal activity,A. fumigatus conidia; wt mouse plasma,increase of microbicidal activity
same,MAC formation on conidia,[1]; FB-depleted serum,enhanced
same,MAC formation on conidia,[1]; FH-depleted serum,enhanced
same,MAC formation on conidia,[1]; MBL-depleted serum,enhanced
same,MAC formation on conidia,"[1]; normal serum, 1 min and 30 min",enhanced
